Blank lines part the entries; values can stand above or below the compound they belong to.
How the values were obtained:
[1] = DSC / modulated DSC glass transition analysis; format: physicochemical; details: DSC/mDSC, 10° C./min
Protocol: Differential Scanning calorimetry (DSC). DSC analysis was conducted using a TA Instruments Model 2920 DSC (New Castle, Del.) equipped with a refrigerated cooling system. Samples were weighed to 15±5 mg in aluminum crimped pans (Kit 0219-0041, Perkin-Elmer Instruments, Norwalk, Conn.). For the KTZ dispersions in Methocel™ E50 and Kollidon® 30 the samples were heated at a ramp rate of 10° C./min from 5 to 215° C. with a modulation temperature amplitude of 0.5° C. and a modulation period of 40 seconds for all studies. For the IND and KTZ dispersions in […]® L 100-55 the samples were analyzed by conventional, non-modulated DSC at a ramp rate of 10° C./min from 5 to 200° C. Ultrahigh purity nitrogen was used as the purge gas at a flow rate of 40 mL/min. All data analyses were performed using TA Universal Analysis 2000 software. The thermogram for amorphous KTZ, used in the DSC analysis of the solid dispersions formulations of KTZ in Methocel™ E50 and Kollidon® 30 was obtained on a second heating of crystalline KTZ following an initial heating to 215° C. followed by rapid cooling (20° C./min) to 5° C. The thermograms of Methocel™ E50 and Kollidon® 30 were obtained by first run DSC following preheating of the polymer powders to 90° C. for 15 minutes in an MF-50 model moisture analyzer (AND Company Ltd. Encino, Calif.) to expel absorbed moisture.
Modulated Differential scanning calorimetry testing for the griseofulvin products was performed using a TA Instruments Model 2920 DSC (New Castle, Del.) and analyzed using TA Universal Analysis 2000 Software. Samples were accurately weighed to 15±2 mg in aluminum crimped pans. […]
Modulated Differential scanning calorimetry testing of itraconazole:HPMC E5 processed by TKC and by HME was performed using a TA Instruments Model 2920 DSC (New Castle, Del.) and analyzed using TA Universal Analysis 2000 Software. […]
The tested were conducted on a TA Instruments Model 2920 DSC (New Castle, Del.) and analyzed using TA Universal Analysis 2000 Software. […]

[2] = neutral pH media; reference (42); cited from earlier work
[3] = HPLC degradation products and mass balance of hydrocortisone formulation processed by TKC; format: physicochemical
Protocol: Pharmaceutical compositions of hydrocortisone were prepared by TKC, having an ejection temperature of approximately 160° C., and compared to the unprocessed drug substance to evaluate the formation of degradation products induced by processing.
Analytical testing of the hydrocortisone formulation processed by TKC was performed by HPLC using a Phenomenex C18 column and mobile phase of 65:35 methanol:water at a flow rate of 1 ml/min. Degradation products were identified and are described in terms of their retention time under this method.

- glass transition temperature (Tg) [1]: 90 °C
Structure (SMILES): COC1=CC(=O)C[C@@H](C)[C@]12Oc1c(Cl)c(OC)cc(OC)c1C2=O [amorphous griseofulvin, griseofulvin]

Structure (SMILES): CC(=O)N1CCN(c2ccc(OCC3COC(Cn4ccnc4)(c4ccc(Cl)cc4Cl)O3)cc2)CC1 (stereo not drawn) [KTZ, ketoconazole]
- equilibrium (saturation) solubility [2]: 5.98 µg/mL

- Impurity - 3.2 ([3]; HPLC retention time 3.2): 0.20%
- Impurity - 3.9 ([3]; HPLC retention time 3.9): 0.26%
- Impurity - 4.9 ([3]; HPLC retention time 4.9): 0.20%
- Impurity - 5.5 ([3]; HPLC retention time 5.5): 0.62%
- Impurity - 8.7 ([3]; HPLC retention time 8.7): 0.13%
Structure (SMILES): C[C@]12CCC(=O)C=C1CC[C@@H]1[C@@H]2[C@@H](O)C[C@@]2(C)[C@H]1CC[C@]2(O)C(=O)CO [Hydrocortisone, USP, Hydrocortisone]

Structure (SMILES): CC(=O)N1CCN(c2ccc(OCC3COC(Cn4ccnc4)(c4ccc(Cl)cc4Cl)O3)cc2)CC1 (stereo not drawn) [amorphous KTZ, ketoconazole]
- glass transition temperature (Tg) [1]: 45 °C
- glass transition temperature (Tg) ([1]; listed as Amorphous KTZ): approximately 45 °C

From US11439650B2, “Thermo-kinetic mixing for pharmaceutical applications” (BOARD OF REGENTS, THE UNIVERSITY OF TEXAS SYSTEM, priority 2007, dated 2022)
